Laboratory results published in US20070167412A1, “HALOCOMBSTATINS AND METHODS OF SYNTHESIS THEREOF” (ARIZONA BOARD OF REGENTS, priority 2003, published 2007).
≈ marks a conversion by molar mass, not a printed value.

Experiments:
Breast MCF-7 = test: human cancer cell growth inhibition, sulforhodamine B assay; type: cell-based; details: Table I, 48 hours
Procedure, shortened: (§1)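 Read-out: sulforhodamine B staining quantified by automated microplate reader. Protocol follows the National Cancer Institute standard, with fixation in trichloracetic acid at the end of a 48-hour incubation.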

CNS SF268 = test: as above; type: cell-based; details: Table I, 48 hours
Procedure, shortened: as §1

Colon KM20L2 = test: as above; type: cell-based; details: Table I, 48 hours
Procedure, shortened: as §1

Lung-NSC NCI-H460 = test: as above; type: cell-based; details: Table I, 48 hours
Procedure, shortened: as §1

Pancreas BXPC-3 = test: as above; type: cell-based; details: Table I, 48 hours
Procedure, shortened: as §1

Prostate DU-145 = test: as above; type: cell-based; details: Table I, 48 hours
Procedure, shortened: as §1

purified tubulin = tested on: T1, purified tubulin; test: inhibition of tubulin polymerization (turbidimetry); type: biochemical; details: 10 μM tubulin, GTP 0.4 mM, 30° C., extent after 20 minutes; read-out: Inhibition of polymerization IC50 ± S.D.
T1 construct: other: 10 μM tubulin, GTP 0.4 mM, 30° C., extent after 20 minutes
Description: (§2) Tubulin polymerization was evaluated by turbidimetry at 350 nm using Beckman DU7400/7500 spectrophotometers as described in detail elsewhere. […] Varying concentrations of drug were preincubated with 10 μM:M ([…]) purified tubulin (See Hamel, E., et al., Separation of Active Tubulin and Microtubule-associated Proteins by Ultracentrifiigation and Isolation of a Component Causing the Formation of Microtubule Bundles, Biochemistry 1984, 23, 4173-4184). Samples were chilled on ice, GTP (0.4 mM) was added, and polymerization was followed at 30° C. The parameter measured was extent of the reaction after 20 minutes. Coichicine binding was measured as described in detail previously. Reaction mixtures contained 1.0 μM :M tubulin, 5.0:M, [^3H]colchicine (from Dupont), and inhibitor at 1.0 μM:M. Incubation was for 10 minutes at 37° C.
Tubulin Evaluations: Tubulin polymerization was evaluated by turbidimetry at […] using Beckman DU7400/7500 spectrophotometers as known to one of skill in the art. Varying concentrations of the compound were preincubated with 10 μM. […]

tubulin = test: inhibition of [3H]colchicine binding to tubulin; details: 1.0 μM tubulin, 5.0 μM [3H]colchicine, inhibitor at 1.0 μM, 10 minutes at 37° C.
Description: as §2

Candida albicans = test: reference broth microdilution susceptibility assay; type: cell-based; details: Table III
Excerpt: (§3) The halocombstatins of the present invention appear to also have antimicrobial properties. More specifically, they appear to have antifungal and/or antibacterial properties. Antimicrobial evaluation of the halocombstatins involved susceptibility testing performed by the reference broth microdilution assay. The antimicrobial activities of the halocombstatins were very similar, targeting Gram-positive bacteria and the pathogenic fungi Cryptococcus neoformans, and results are shown in Table III.
(§4) (See Pettit, G. R., et al., Antineoplastic Agents 463. Synthesis of Combretastatin A-3 Diphosphates, Anticancer Drug Design 2000, 15, 397-404.) To determine the antimicrobial activity of the present compounds, susceptibility testing was performed by the reference broth microdilution assay. (See National Committee for Clinical Laboratory Standards. Methods for Dilution Antimicrobial Susceptibility Tests for Bacteria that Grow Aerobically. Approved Standard M7-A5. Wayne, P A: NCCLS, 2000. National Committee for Clinical Laboratory Standards. Reference Method for Broth Dilution Antifungal Susceptibility Testing of Yeasts. Aproved Standard M27-A. Wayne, P A: NCCLS, 1997.) The antimicrobial activities of the halocombretastatins of the present invention were very similar, targeting Gram-positive bacteria and Cryptococcus neoformans. This is illustrated in further detail in Table III. Thus, several of the novel compounds of the present invention appear to have potential as antimicrobial agents, such as antifingals and antibacterials.

Cryptococcus neoformans = test: reference broth microdilution susceptibility assay; type: cell-based; details: Table III
Excerpt: as §3, §4

Enterobacter cloacae = test: reference broth microdilution susceptibility assay; type: cell-based; details: Table III
Excerpt: as §3, §4

Enterococcus faecalis = test: reference broth microdilution susceptibility assay; type: cell-based; details: Table III
Excerpt: as §3, §4

Escherichia coli = test: reference broth microdilution susceptibility assay; type: cell-based; details: Table III
Excerpt: as §3, §4

Micrococcus luteus = test: reference broth microdilution susceptibility assay; type: cell-based; details: Table III
Excerpt: as §3, §4

Neisseria gonorrhoeae = test: reference broth microdilution susceptibility assay; type: cell-based; details: Table III
Excerpt: as §3, §4

Staphylococcus aureus = test: reference broth microdilution susceptibility assay; type: cell-based; details: Table III
Excerpt: as §3, §4

[1] = tested on: Stenotrophomonas maltophilia; test: reference broth microdilution susceptibility assay; type: cell-based; details: Table III
Excerpt: as §3, §4

Streptococcus pneumoniae = test: reference broth microdilution susceptibility assay; type: cell-based; details: Table III
Excerpt: as §3, §4

[2] = tested on: human umbilical vein endothelial cells (HUVEC); test: Matrigel cord formation assay; type: cell-based; parameters: key to Lengths of Cords: −: No Cords; +: Small; ++: ˜50% of Control; +++: Same as Control; details: for Lengths of Cords: 24 hours, compared to untreated controls
Description: (§5) In vitro Matrigel antiangiogenesis assays were implemented according to the Developmental Therapeutics Program NCI/NIH protocols known to one of skill in the art. Matrigel, a basement membrane matrix, was obtained from BD Biosciences. Growth inhibition and cord formation assays were Conducted using human umbilical vein endothelial cells obtained from GlycoTeCh. HUVEC cells were grown in EGM-2 medium.
(§6) An aliquot of sixty microliters was placed in each well of an ice-cold 96-well plate. The plates were then left for 15 minutes at room temperature, then incubated for 30 minutes at 37° C. to permit the matrigel to polymerize. Meanwhile, HUVEC cells were harvested and diluted to a concentration of 2×10^5 cells/ml. A solution of 100 μL containing the compounds to be tested was added next. After 24 hours incubation, pictures were taken for each concentration using an inverted Nikon Diaphot microscope and D100 digital camera. Drug effect was assessed, compared to untreated controls, by measuring the length of cords formed and number ofjunctions.

[3] = tested on: microtubules in human umbilical vein endothelial cells (HUVEC); test: disruption of microtubules in HUVEC; type: cell-based
Excerpt: HUVECs were isolated according to methods know to one of skill in the art (see Jaffe, E. A. et al., Culture of Human Endothelial Cells Derived From Umbilical Veins. Identification by Morphologic and Immunologic Criteria, J. Clin. Invest. 1973, 52, 2754-2756.)

KAT-4 = test: human anaplastic thyroid carcinoma cell line inhibition; type: cell-based
Description: (§7) Inhibition of human cancer cell growth was assessed using the National Cancer Institute's standard sulforhodamine B assay. After 48 hours, the plates were fixed with trichloracetic acid, stained with sulforhodamine B and read with an automated microplate reader. A growth inhibition of 50% (GI50 or the drug concentration causing a 50% reduction in the net protein increase) was calculated from optical density data with Inmunosoft software. Inhibition of the mouse leukemia P388 cells was assessed in a 10% horse serum/Fisher medium soution for 24 hours, followed by a 48 hour incubation with serial dilutions of the compounds. Cell growth inhibition (ED50) was then calculated using a Z1 Becleman/Coulter particle counter.

SW1736 = test: as above; type: cell-based
Description: as §7

[4] = tested on: human umbilical vein endothelial cells (HUVEC); test: HUVEC growth inhibition, sulforhodamine B assay; type: cell-based
Description: as §5
The standard sulforhodamine B assay (see Cancer Cell Line Procedures above) was used to evaluate results using HUVEC cells. IC50 or ED50 (drug concentration causing 50% inhibition) was calculated from the plotted data.

[5] = tested on: human umbilical vein endothelial cells (HUVEC); test: Matrigel cord formation assay; type: cell-based; parameters: key: −: No Cords; +: Small; ++: ˜50% of Control; +++: Same as Control; details: 24 hours, compared to untreated controls
Description: as §5, §6

[6] = tested on: human umbilical vein endothelial cells (HUVEC); test: Matrigel cord formation assay; type: cell-based; parameters: key: −: No Junctions; +: Few; ++: ˜50% of Control; +++: Same as Control; details: 24 hours, compared to untreated controls
Description: as §5, §6

| Compound | IC50 (purified tubulin) [nM] | Inhibition of colchicine binding % inhibition ± S.D. (tubulin) [%] | Range of minimum inhibitory concentration, Candida albicans (Candida albicans) | Range of minimum inhibitory concentration, Cryptococcus neoformans (Cryptococcus neoformans) [µg/mL] | Range of minimum inhibitory concentration, Enterobacter cloacae (Enterobacter cloacae) | Range of minimum inhibitory concentration, Enterococcus faecalis (Enterococcus faecalis) | Range of minimum inhibitory concentration, Escherichia coli (Escherichia coli) | Range of minimum inhibitory concentration, Micrococcus luteus (Micrococcus luteus) [µg/mL] | Range of minimum inhibitory concentration, Neisseria gonorrhoeae (Neisseria gonorrhoeae) [µg/mL] | Range of minimum inhibitory concentration, Staphylococcus aureus (Staphylococcus aureus) | Range of minimum inhibitory concentration, Stenotrophomonas maltophilia [1] | Range of minimum inhibitory concentration, Streptococcus pneumoniae (Streptococcus pneumoniae) [µg/mL] | ability to disrupt microtubules in HUVEC [3] | Relative % Growth ([4]; HUVEC, 0.0001 μg/ml) [%] | Relative % Growth ([4]; HUVEC, 0.001 μg/ml) [%] | Relative % Growth ([4]; HUVEC, 0.01 μg/ml) [%] | Lengths of Cords ([2]; 0.001 μg/ml) | other results |
| --- | --- | --- | --- | --- | --- | --- | --- | --- | --- | --- | --- | --- | --- | --- | --- | --- | --- | --- |
| COc1ccc(/C=C\c2cc(F)c(OC)c(OC)c2)cc1O [Compound 11a, 3-Fluoro-4,4′,5-trimethoxy-3′-hydroxy-Z-stilbene] | 1500 ± 200 | 75 ± 6 | * (no inhibition at 64 μg/ml) | 64 | * (no inhibition at 64 μg/ml) | * (no inhibition at 64 μg/ml) | * (no inhibition at 64 μg/ml) | 32 to 64 | 32 | * (no inhibition at 64 μg/ml) | * (no inhibition at 64 μg/ml) | 64 | disrupt microtubules |  |  |  |  | GI50 (Breast MCF-7; Homo sapiens, MCF7, read-out: Human cancer cell line inhibition (GI50) Breast adn MCF-7): < 0.01 µg/mL; GI50 (CNS SF268; Homo sapiens, SF-268, read-out: Human cancer cell line inhibition (GI50) CNS SF268): < 0.01 µg/mL; GI50 (Colon KM20L2; Homo sapiens, KM-20L2, read-out: Human cancer cell line inhibition (GI50) Colon KM20L2): 1.1 µg/mL (≈ 3.61 µM); GI50 (Lung-NSC NCI-H460; Homo sapiens, NCI-H460, read-out: Human cancer cell line inhibition (GI50) Lung-NSC NCI-H460): < 0.01 µg/mL; GI50 (Pancreas BXPC-3; Homo sapiens, BXPC-3, read-out: Human cancer cell line inhibition (GI50) Pancreas-a BXPC-3): 0.016 µg/mL (≈ 0.0526 µM); GI50 (Prostate DU-145; Homo sapiens, DU-145, read-out: Human cancer cell line inhibition (GI50) Prostate DU-145): < 0.01 µg/mL; Cords length as well as junction numbers ([2]; at both 0.01 and 0.001 μg/mL compared to untreated controls): markedly reduced |
| 3-Cloro-4,4′,5-trimethoxy-3′-hydroxy-Z-stilbene [Compound 12a] | 1600 ± 300 | 85 ± 4 | * (no inhibition at 64 μg/ml) | 64 | * (no inhibition at 64 μg/ml) | * (no inhibition at 64 μg/ml) | * (no inhibition at 64 μg/ml) | 32 | 16 | * (no inhibition at 64 μg/ml) | * (no inhibition at 64 μg/ml) | 32 to 64 | disrupt microtubules |  |  |  |  | Human cancer cell line inhibition (GI50) Breast adn MCF-7 (Breast MCF-7): <0.001 µg/mL; Human cancer cell line inhibition (GI50) CNS SF268 (CNS SF268): <0.001 µg/mL; Human cancer cell line inhibition (GI50) Colon KM20L2 (Colon KM20L2): 0.15 µg/mL; Human cancer cell line inhibition (GI50) Lung-NSC NCI-H460 (Lung-NSC NCI-H460): <0.001 µg/mL; Human cancer cell line inhibition (GI50) Pancreas-a BXPC-3 (Pancreas BXPC-3): 0.043 µg/mL; Human cancer cell line inhibition (GI50) Prostate DU-145 (Prostate DU-145): <0.001 µg/mL |
| Potassium 3,5-dilodo-4,4′dimethoxy-z-stilbene 3′-O-phosphate [Compound S (Table Ia)] |  |  |  |  |  |  |  |  |  |  |  |  |  | 96 | 88 | 33 | +++ | Human Anaplastic Thyroid Carcinoma Cell Line Inhibition Values (GI50) KAT-4 (KAT-4): 0.38 to 0.44 µg/mL; Human Anaplastic Thyroid Carcinoma Cell Line Inhibition Values (GI50) SW1736 (SW1736): >10 µg/mL; Relative % Growth ([4]; HUVEC, 0.1 μg/ml): 15%; Human Umbilical Vein Endothelial Cell (HUVEC) Inhibition Values (GI50) ([4]; Table V): 0.0049 µg/mL; Lengths of Cords ([2]; 0.1 μg/ml): −; Number of junctions ([5]; 0.001 μg/ml): +++; Number of junctions ([6]; 0.1 μg/ml): − |
| COc1ccc(/C=C\c2cc(I)c(OC)c(I)c2)cc1O [Compound 22a, 3,5-diiodo-4,4′-dimethoxy-3′-hydroxy-z-stilbene] |  |  |  |  |  |  |  |  |  |  |  |  |  | 84 | 8 | 4 | + | GI50 (KAT-4; Homo sapiens, KAT-4): 0.039 to 0.063 µg/mL (≈ 0.0768 to 0.124 µM); GI50 (SW1736; Homo sapiens, SW-1736): 1.2 µg/mL (≈ 2.36 µM); Relative % Growth ([4]; HUVEC, 0.00001 μg/ml): 87%; GI50 ([4]; Homo sapiens, HUVEC, Table V, read-out: Human Umbilical Vein Endothelial Cell (HUVEC) Inhibition Values (GI50)): 0.00028 µg/mL (≈ 0.000551 µM); Lengths of Cords ([2]; 0.0001 μg/ml): +++; Lengths of Cords ([2]; 0.01 μg/ml): −; Number of junctions ([5]; 0.0001 μg/ml): +++; Number of junctions ([6]; 0.01 μg/ml): − |
